In paper PMC6830379 (International Journal of Nanomedicine, 2019):
Where a name gives a salt, the structure may show the parent alone. Read-outs that look alike come from different tables or passages of the source.

Legend:
[1] = cited from earlier work
[2] = depending on the dosage form; reported, ref not given; cited from earlier work
[3] = Determination of SQR solubility in oils, surfactants and co-surfactants; assay type: physicochemical; conditions: ethanol

solubility at 72 h [3]: 126 mg/mL
SMILES: CC(C)(C)NC(=O)[C@@H]1C[C@@H]2CCCC[C@@H]2CN1C[C@@H](O)[C@H](Cc1ccccc1)NC(=O)[C@H](CC(N)=O)NC(=O)c1ccc2ccccc2n1 [SQR, Saquinavir mesylate]
aqueous solubility ([1]; pH of 6.5): 0.073 mg/mL
aqueous solubility ([1]; pH of 7.4): 0.036 mg/mL
oral bioavailability [2]: 0.7–4.0%
